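Values below derive from 48-hour exposures of cells grown in 96-well plates, with endpoints linearly interpolated between the two concentrations bracketing the appropriate inhibition level. The concentration for full growth arrest is given as TGI.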
test system: MOLT-4 leukemia; assay: inhibition of tumour cell growth, NCI panel, 48 h

Row | Compound | TGI [µM]
1 | CCOC(=O)CCC(C(=O)OCC)n1nc2ccc(Nc3c(C)[n+]([O-])c4ccc(Cl)cc4[n+]3[O-])cc2n1 (stereo unspecified) | > 100
2 | C(=N\c1cc2cc(Sc3ccccc3)ccc2[nH]1)/c1ccccc1 | > 12.5
3 | CCOc1cc(NC(C)=O)ccc1C(=O)NNS(=O)(=O)c1ccc(Cl)cc1Cl | 22
4 | CN(C)c1ccc(C2C(Cl)C(=O)N2NC(=O)c2c(Cl)c(Cl)c(Cl)c(Cl)c2-c2nc3ccccc3[nH]2)cc1 (stereo unspecified) | > 100

test system: NCI-H226 lung; assay: inhibition of tumour cell growth, NCI panel, 48 h

Row | Compound | TGI [µM]
5 | CCOC(=O)CCC(C(=O)OCC)n1nc2ccc(Nc3c(C)[n+]([O-])c4ccc(Cl)cc4[n+]3[O-])cc2n1 (stereo unspecified) | 51.5
6 | CCOc1cc(NC(C)=O)ccc1C(=O)NNS(=O)(=O)c1ccc(Cl)cc1Cl | > 50
7 | CN(C)c1ccc(C2C(Cl)C(=O)N2NC(=O)c2c(Cl)c(Cl)c(Cl)c(Cl)c2-c2nc3ccccc3[nH]2)cc1 (stereo unspecified) | 69.7

test system: NCI-H23 lung; assay: inhibition of tumour cell growth, NCI panel, 48 h

Row | Compound | TGI [µM]
8 | CCC(=O)Nc1cccc(NC(=O)c2c(Cl)c(Cl)c(Cl)c(Cl)c2-c2nc3ccccc3[nH]2)c1 | > 100
9 | CCOC(=O)CCC(C(=O)OCC)n1nc2ccc(Nc3c(C)[n+]([O-])c4ccc(Cl)cc4[n+]3[O-])cc2n1 (stereo unspecified) | 53.4
10 | C(=N\c1cc2cc(Sc3ccccc3)ccc2[nH]1)/c1ccccc1 | > 12.5
11 | CCOc1cc(NC(C)=O)ccc1C(=O)NNS(=O)(=O)c1ccc(Cl)cc1Cl | > 50
12 | CN(C)c1ccc(C2C(Cl)C(=O)N2NC(=O)c2c(Cl)c(Cl)c(Cl)c(Cl)c2-c2nc3ccccc3[nH]2)cc1 (stereo unspecified) | 29.7

test system: NCI-H460 lung; assay: inhibition of tumour cell growth, NCI panel, 48 h

Row | Compound | TGI [µM]
13 | CCC(=O)Nc1cccc(NC(=O)c2c(Cl)c(Cl)c(Cl)c(Cl)c2-c2nc3ccccc3[nH]2)c1 | > 100
14 | CCOC(=O)CCC(C(=O)OCC)n1nc2ccc(Nc3c(C)[n+]([O-])c4ccc(Cl)cc4[n+]3[O-])cc2n1 (stereo unspecified) | 33.6
15 | CCOc1cc(NC(C)=O)ccc1C(=O)NNS(=O)(=O)c1ccc(Cl)cc1Cl | > 50

test system: NCI-H522 lung; assay: inhibition of tumour cell growth, NCI panel, 48 h

Row | Compound | TGI [µM]
16 | CCC(=O)Nc1cccc(NC(=O)c2c(Cl)c(Cl)c(Cl)c(Cl)c2-c2nc3ccccc3[nH]2)c1 | > 100
17 | CCOC(=O)CCC(C(=O)OCC)n1nc2ccc(Nc3c(C)[n+]([O-])c4ccc(Cl)cc4[n+]3[O-])cc2n1 (stereo unspecified) | > 100
18 | C(=N\c1cc2cc(Sc3ccccc3)ccc2[nH]1)/c1ccccc1 | > 12.5
19 | CCOc1cc(NC(C)=O)ccc1C(=O)NNS(=O)(=O)c1ccc(Cl)cc1Cl | > 50
20 | CN(C)c1ccc(C2C(Cl)C(=O)N2NC(=O)c2c(Cl)c(Cl)c(Cl)c(Cl)c2-c2nc3ccccc3[nH]2)cc1 (stereo unspecified) | 11.9

test system: NCI/ADR-RES ovarian; assay: inhibition of tumour cell growth, NCI panel, 48 h

Row | Compound | TGI [µM]
21 | CCC(=O)Nc1cccc(NC(=O)c2c(Cl)c(Cl)c(Cl)c(Cl)c2-c2nc3ccccc3[nH]2)c1 | > 100
22 | CCOC(=O)CCC(C(=O)OCC)n1nc2ccc(Nc3c(C)[n+]([O-])c4ccc(Cl)cc4[n+]3[O-])cc2n1 (stereo unspecified) | 48
23 | C(=N\c1cc2cc(Sc3ccccc3)ccc2[nH]1)/c1ccccc1 | > 12.5
24 | CCOc1cc(NC(C)=O)ccc1C(=O)NNS(=O)(=O)c1ccc(Cl)cc1Cl | > 50
25 | CN(C)c1ccc(C2C(Cl)C(=O)N2NC(=O)c2c(Cl)c(Cl)c(Cl)c(Cl)c2-c2nc3ccccc3[nH]2)cc1 (stereo unspecified) | > 100

test system: OVCAR-3 ovarian; assay: inhibition of tumour cell growth, NCI panel, 48 h

Row | Compound | TGI [µM]
26 | CCC(=O)Nc1cccc(NC(=O)c2c(Cl)c(Cl)c(Cl)c(Cl)c2-c2nc3ccccc3[nH]2)c1 | > 100
27 | CCOC(=O)CCC(C(=O)OCC)n1nc2ccc(Nc3c(C)[n+]([O-])c4ccc(Cl)cc4[n+]3[O-])cc2n1 (stereo unspecified) | > 100
28 | C(=N\c1cc2cc(Sc3ccccc3)ccc2[nH]1)/c1ccccc1 | > 12.5
29 | CCOc1cc(NC(C)=O)ccc1C(=O)NNS(=O)(=O)c1ccc(Cl)cc1Cl | > 50
30 | CN(C)c1ccc(C2C(Cl)C(=O)N2NC(=O)c2c(Cl)c(Cl)c(Cl)c(Cl)c2-c2nc3ccccc3[nH]2)cc1 (stereo unspecified) | 44.7

test system: OVCAR-4 ovarian; assay: inhibition of tumour cell growth, NCI panel, 48 h

Row | Compound | TGI [µM]
31 | CCC(=O)Nc1cccc(NC(=O)c2c(Cl)c(Cl)c(Cl)c(Cl)c2-c2nc3ccccc3[nH]2)c1 | > 100
32 | CCOC(=O)CCC(C(=O)OCC)n1nc2ccc(Nc3c(C)[n+]([O-])c4ccc(Cl)cc4[n+]3[O-])cc2n1 (stereo unspecified) | > 100
33 | C(=N\c1cc2cc(Sc3ccccc3)ccc2[nH]1)/c1ccccc1 | > 12.5
34 | CCOc1cc(NC(C)=O)ccc1C(=O)NNS(=O)(=O)c1ccc(Cl)cc1Cl | > 50

test system: OVCAR-5 ovarian; assay: inhibition of tumour cell growth, NCI panel, 48 h

Row | Compound | TGI [µM]
35 | CCC(=O)Nc1cccc(NC(=O)c2c(Cl)c(Cl)c(Cl)c(Cl)c2-c2nc3ccccc3[nH]2)c1 | > 100
36 | CCOC(=O)CCC(C(=O)OCC)n1nc2ccc(Nc3c(C)[n+]([O-])c4ccc(Cl)cc4[n+]3[O-])cc2n1 (stereo unspecified) | > 100
37 | CCOc1cc(NC(C)=O)ccc1C(=O)NNS(=O)(=O)c1ccc(Cl)cc1Cl | > 50
38 | CN(C)c1ccc(C2C(Cl)C(=O)N2NC(=O)c2c(Cl)c(Cl)c(Cl)c(Cl)c2-c2nc3ccccc3[nH]2)cc1 (stereo unspecified) | > 100

test system: OVCAR-8 ovarian; assay: inhibition of tumour cell growth, NCI panel, 48 h

Row | Compound | TGI [µM]
39 | CCC(=O)Nc1cccc(NC(=O)c2c(Cl)c(Cl)c(Cl)c(Cl)c2-c2nc3ccccc3[nH]2)c1 | > 100
40 | CCOC(=O)CCC(C(=O)OCC)n1nc2ccc(Nc3c(C)[n+]([O-])c4ccc(Cl)cc4[n+]3[O-])cc2n1 (stereo unspecified) | 65.7
41 | C(=N\c1cc2cc(Sc3ccccc3)ccc2[nH]1)/c1ccccc1 | > 12.5
42 | CCOc1cc(NC(C)=O)ccc1C(=O)NNS(=O)(=O)c1ccc(Cl)cc1Cl | > 50

test system: PC-3 prostate; assay: inhibition of tumour cell growth, NCI panel, 48 h

Row | Compound | TGI [µM]
43 | CCC(=O)Nc1cccc(NC(=O)c2c(Cl)c(Cl)c(Cl)c(Cl)c2-c2nc3ccccc3[nH]2)c1 | > 100
44 | CCOC(=O)CCC(C(=O)OCC)n1nc2ccc(Nc3c(C)[n+]([O-])c4ccc(Cl)cc4[n+]3[O-])cc2n1 (stereo unspecified) | > 100
45 | C(=N\c1cc2cc(Sc3ccccc3)ccc2[nH]1)/c1ccccc1 | > 12.5
46 | CCOc1cc(NC(C)=O)ccc1C(=O)NNS(=O)(=O)c1ccc(Cl)cc1Cl | > 50
47 | CN(C)c1ccc(C2C(Cl)C(=O)N2NC(=O)c2c(Cl)c(Cl)c(Cl)c(Cl)c2-c2nc3ccccc3[nH]2)cc1 (stereo unspecified) | 50.9

test system: RPMI-8226 leukemia; assay: inhibition of tumour cell growth, NCI panel, 48 h

Row | Compound | TGI [µM]
48 | CCC(=O)Nc1cccc(NC(=O)c2c(Cl)c(Cl)c(Cl)c(Cl)c2-c2nc3ccccc3[nH]2)c1 | > 100
49 | CCOC(=O)CCC(C(=O)OCC)n1nc2ccc(Nc3c(C)[n+]([O-])c4ccc(Cl)cc4[n+]3[O-])cc2n1 (stereo unspecified) | > 100
50 | C(=N\c1cc2cc(Sc3ccccc3)ccc2[nH]1)/c1ccccc1 | > 12.5
51 | CCOc1cc(NC(C)=O)ccc1C(=O)NNS(=O)(=O)c1ccc(Cl)cc1Cl | 26.6

test system: RXF 393 renal; assay: inhibition of tumour cell growth, NCI panel, 48 h

Row | Compound | TGI [µM]
52 | CCC(=O)Nc1cccc(NC(=O)c2c(Cl)c(Cl)c(Cl)c(Cl)c2-c2nc3ccccc3[nH]2)c1 | > 100
53 | CCOC(=O)CCC(C(=O)OCC)n1nc2ccc(Nc3c(C)[n+]([O-])c4ccc(Cl)cc4[n+]3[O-])cc2n1 (stereo unspecified) | 27.3
54 | C(=N\c1cc2cc(Sc3ccccc3)ccc2[nH]1)/c1ccccc1 | > 12.5
55 | CCOc1cc(NC(C)=O)ccc1C(=O)NNS(=O)(=O)c1ccc(Cl)cc1Cl | > 50
56 | CN(C)c1ccc(C2C(Cl)C(=O)N2NC(=O)c2c(Cl)c(Cl)c(Cl)c(Cl)c2-c2nc3ccccc3[nH]2)cc1 (stereo unspecified) | 8.96

test system: SF-268 CNS; assay: inhibition of tumour cell growth, NCI panel, 48 h

Row | Compound | TGI [µM]
57 | CCC(=O)Nc1cccc(NC(=O)c2c(Cl)c(Cl)c(Cl)c(Cl)c2-c2nc3ccccc3[nH]2)c1 | > 100
58 | CCOC(=O)CCC(C(=O)OCC)n1nc2ccc(Nc3c(C)[n+]([O-])c4ccc(Cl)cc4[n+]3[O-])cc2n1 (stereo unspecified) | 36.3
59 | C(=N\c1cc2cc(Sc3ccccc3)ccc2[nH]1)/c1ccccc1 | > 12.5
60 | CCOc1cc(NC(C)=O)ccc1C(=O)NNS(=O)(=O)c1ccc(Cl)cc1Cl | > 50
61 | CN(C)c1ccc(C2C(Cl)C(=O)N2NC(=O)c2c(Cl)c(Cl)c(Cl)c(Cl)c2-c2nc3ccccc3[nH]2)cc1 (stereo unspecified) | 43.5

test system: SF-295 CNS; assay: inhibition of tumour cell growth, NCI panel, 48 h

Row | Compound | TGI [µM]
62 | CCC(=O)Nc1cccc(NC(=O)c2c(Cl)c(Cl)c(Cl)c(Cl)c2-c2nc3ccccc3[nH]2)c1 | > 100
63 | CCOC(=O)CCC(C(=O)OCC)n1nc2ccc(Nc3c(C)[n+]([O-])c4ccc(Cl)cc4[n+]3[O-])cc2n1 (stereo unspecified) | 39.1
64 | C(=N\c1cc2cc(Sc3ccccc3)ccc2[nH]1)/c1ccccc1 | > 12.5
65 | CCOc1cc(NC(C)=O)ccc1C(=O)NNS(=O)(=O)c1ccc(Cl)cc1Cl | > 50
66 | CN(C)c1ccc(C2C(Cl)C(=O)N2NC(=O)c2c(Cl)c(Cl)c(Cl)c(Cl)c2-c2nc3ccccc3[nH]2)cc1 (stereo unspecified) | > 100

Reference: PubChem BioAssay (NCI)
